Measured values as given in US10273231B2, “Azoline compounds substituted by a condensed ring system” (BASF SE, priority 2014, dated 2019).

Experiments:
Assay type in all cases: in vivo
[1] = tested on: Diamond Back Moth (Plutella xylostella); assay: B.1 Diamond back moth leaf-dip test on cabbage leaves; settings: 3rd instar larvae, recorded 72 hours after treatment, read-out: mortality in comparison with untreated controls
Experimental: B.1 Diamond Back Moth (Plutella xylostella)
The active compound was dissolved at the desired concentration in a mixture of 1:1 (vol:vol) distilled water:aceteone. Surfactant (Kinetic HV) was added at a rate of 0.01% (vol/vol).The test solution was prepared at the day of use.
Leaves of cabbage were dipped in test solution and air-dried. Treated leaves were placed in petri dishes lined with moist filter paper and inoculated with ten 3rd instar larvae. Mortality was recorded 72 hours after treatment. Feeding damages were also recorded using a scale of 0-100%.

[2] = tested on: Green Peach Aphid (Myzus persicae); assay: B.2 Green peach aphid systemic test, artificial diet under membrane in microtiter plates; settings: 72 h, adult aphids, assessed after 3 days, read-out: mortality in comparison with untreated controls
Excerpt: B.2 Green Peach Aphid (Myzus persicae)
For evaluating control of green peach aphid (Myzus persicae) through systemic means the test unit consisted of 96-well-microtiter plates containing liquid artificial diet under an artificial membrane.
The compounds were formulated using a solution containing 75% v/v water and 25% v/v DMSO. Different concentrations of formulated compounds were pipetted into the aphid diet, using a custom built pipetter, at two replications.
After application, 5-8 adult aphids were placed on the artificial membrane inside the microtiter plate wells. The aphids were then allowed to suck on the treated aphid diet and incubated at about 23±1° C. and about 50±5% relative humidity for 3 days. Aphid mortality and fecundity was then visually assessed.

[3] = tested on: Vetch Aphid (Megoura viciae); assay: B.3 Vetch aphid test on broad bean leaf disks; settings: foliar, 120 h, adult aphids, assessed after 5 days, read-out: mortality in comparison with untreated controls
Experimental: B.3 Vetch Aphid (Megoura viciae)
For evaluating control of vetch aphid (Megoura viciae) through contact or systemic means the test unit consisted of 24-well-microtiter plates containing broad bean leaf disks.
The compounds were formulated using a solution containing 75% v/v water and 25% v/v DMSO. Different concentrations of formulated compounds were sprayed onto the leaf disks at 2.5 μl, using a custom built micro atomizer, at two replications.
After application, the leaf disks were air-dried and 5-8 adult aphids placed on the leaf disks inside the microtiter plate wells. The aphids were then allowed to suck on the treated leaf disks and incubated at about 23±10C and about 50±5% relative humidity for 5 days. Aphid mortality and fecundity was then visually assessed.

[4] = tested on: Tobacco Budworm (Heliothis virescens); assay: B.4 Tobacco budworm test, insect diet with eggs in microtiter plates; settings: 120 h, egg and larval mortality after 5 days, read-out: mortality in comparison with untreated controls
Experimental: B.4 Tobacco Budworm (Heliothis virescens)
For evaluating control of tobacco budworm (Heliothis virescens) the test unit consisted of 96-well-microtiter plates containing an insect diet and 15-25 H. virescens eggs.
The compounds were formulated using a solution containing 75% v/v water and 25% v/v DMSO. Different concentrations of formulated compounds were sprayed onto the insect diet at 10 μl, using a custom built micro atomizer, at two replications.
After application, microtiter plates were incubated at about 28±10C and about 80±5% relative humidity for 5 days. Egg and larval mortality was then visually assessed.

[5] = tested on: Boll Weevil (Anthonomus grandis); assay: B.5 Boll weevil test, insect diet with eggs in microtiter plates; settings: 120 h, egg and larval mortality after 5 days, read-out: mortality in comparison with untreated controls
Experimental: B.5 Boll Weevil (Anthonomus grandis)
For evaluating control of boll weevil (Anthonomus grandis) the test unit consisted of 96-well-microtiter plates containing an insect diet and 5-10 A. grandis eggs.
The compounds were formulated using a solution containing 75% v/v water and 25% v/v DMSO. Different concentrations of formulated compounds were sprayed onto the insect diet at 5 μl, using a custom built micro atomizer, at two replications.
After application, microtiter plates were incubated at about 25±1° C. and about 75±5% relative humidity for 5 days. Egg and larval mortality was then visually assessed.

[6] = tested on: Mediterranean Fruitfly (Ceratitis capitata); assay: B.6 Mediterranean fruitfly test, insect diet with eggs in microtiter plates; settings: 120 h, egg and larval mortality after 5 days, read-out: mortality in comparison with untreated controls
Experimental: B.6 Mediterranean Fruitfly (Ceratitis capitata)
For evaluating control of Mediterranean fruitfly (Ceratitis capitata) the test unit consisted of microtiter plates containing an insect diet and 50-80 C. capitata eggs. The compounds were formulated using a solution containing 75% v/v water and 25% v/v DMSO. Different concentrations of formulated compounds were sprayed onto the insect diet at 5 μl, using a custom built micro atomizer, at two replications.
After application, microtiter plates were incubated at about 28±1° C. and about 80+5% relative humidity for 5 days. Egg and larval mortality was then visually assessed.

[7] = tested on: Orchid Thrips (Dichromothrips Corbetti); assay: B.7 Orchid thrips floral-immersion test; settings: adult thrips, recorded 72 hours after treatment, read-out: mortality in comparison with untreated controls
Experimental: B.7 Orchid Thrips (Dichromothrips Corbetti) Dichromothrips corbettiadults used for bioassay were obtained from a colony maintained continuously under laboratory conditions. For testing purposes, the test compound is diluted in a 1:1 mixture of acetone:water (vol:vol), plus Kinetic HV at a rate of 0.01% v/v.
Thrips potency of each compound was evaluated by using a floral-immersion technique. All petals of individual, intact orchid flowers were dipped into treatment solution and allowed to dry in Petri dishes. Treated petals were placed into individual re-sealable plastic along with about 20 adult thrips. All test arenas were held under continuous light and a temperature of about 28° C. for duration of the assay. After 3 days, the numbers of live thrips were counted on each petal. The percent mortality was recorded 72 hours after treatment.

[8] = tested on: Rice Green Leafhopper (Nephotettix virescens); assay: B.8 Rice green leafhopper test on sprayed rice seedlings; settings: adults, recorded after 72 hours, read-out: mortality in comparison with untreated controls
Experimental: B.8 Rice Green Leafhopper (Nephotettix virescens)
Rice seedlings were cleaned and washed 24 hours before spraying. The active compounds were formulated in 1:1 acetone:water (vol:vol), and 0.01% vol/vol surfactant (Kinetic HV) was added. Potted rice seedlings were sprayed with 5-6 ml test solution, air dried, covered with Mylar cages cages and inoculated with 10 adults. Treated rice plants were kept at about 28-29° C. and relative humidity of about 50-60%. Percent mortality was recorded after 72 hours.

[9] = tested on: Red Spider Mite (Tetranychus kanzawai); assay: B.9 Red spider mite test on sprayed cowpea beans; settings: assessed 72 hours after treatment, read-out: mortality in comparison with untreated controls
Experimental: B.9 Red Spider Mite (Tetranychus kanzawai)
The active compound was dissolved at the desired concentration in a mixture of 1:1 (vol:vol) distilled water:acetone. Add surfactant (Kinetic HV) was added at a rate of 0.01% (vol/vol).The test solution was prepared at the day of use.
Potted cowpea beans of 4-5 days of age were cleaned with tap water and sprayed with 1-2 ml of the test solution using air driven hand atomizer. The treated plants were allowed to air dry and afterwards inoculated with 30 or more mites by clipping a cassava leaf section from rearing population. Treated plants were placed inside a holding room at about 25-27° C. and about 50-60% relative humidity. Percent mortality was assessed 72 hours after treatment.

[10] = tested on: Southern Armyworm (Spodoptera eridania); assay: B.10 Southern armyworm test on sprayed lima bean plants; settings: 96 h, larvae, assessed 4 days after treatment, read-out: mortality in comparison with untreated controls
Experimental: B.10 Southern Armyworm (Spodoptera eridania)
The active compounds were formulated in cyclohexanone as a 10,000 ppm solution supplied in tubes. The tubes were inserted into an automated electrostatic sprayer equipped with an atomizing nozzle and they served as stock solutions for which lower dilutions were made in 50% acetone:50% water (v/v). A nonionic surfactant (Kinetic®) was included in the solution at a volume of 0.01% (v/v).
Lima bean plants (variety Sieva) were grown 2 plants to a pot and selected for treatment at the 1st true leaf stage. Test solutions were sprayed onto the foliage by an automated electrostatic plant sprayer equipped with an atomizing spray nozzle. The plants were dried in the sprayer fume hood and then removed from the sprayer. Each pot was placed into perforated plastic bags with a zip closure. About 10 to 11 armyworm larvae were placed into the bag and the bags zipped closed. Test plants were maintained in a growth room at about 250C and about 20-40% relative humidity for 4 days, avoiding direct exposure to fluorescent light (24 hour photoperiod) to prevent trapping of heat inside the bags. Mortality and reduced feeding were assessed 4 days after treatment, compared to untreated control plants.

[11] = tested on: Green Soldier Stink Bug (Nezara viridula); assay: B.11 Green soldier stink bug test on soybean pods in Petri dishes; settings: 120 h, late 3rd instar, recorded after 5 days, read-out: mortality in comparison with untreated controls
Experimental: B.11 Green Soldier Stink Bug (Nezara viridula)
(§1) The active compound was dissolved at the desired concentration in a mixture of 1:1 (vol:vol) distilled water:acetone. Surfactant (Kinetic HV) was added at a rate of 0.01% (vol/vol).The test solution was prepared at the day of use.
Soybean pods were placed in glass Petri dishes lined with moist filter paper and inoculated with ten late 3rd instar N. viridula. Using a hand atomizer, approximately 2 ml solution is sprayed into each Petri dish. Assay arenas were kept at about 25° C. Percent mortality was recorded after 5 days.

[12] = tested on: Neotropical Brown Stink Bug (Euschistus heros); assay: B.12 Neotropical brown stink bug test on soybean pods in plastic cups; settings: 120 h, adult stage, recorded after 5 days, read-out: mortality in comparison with untreated controls
Experimental: B.12 Neotropical Brown Stink Bug (Euschistus heros)
as §1
Soybean pods were placed in microwavable plastic cups and inoculated with ten adult stage E. heros. Using a hand atomizer, approximately 1 ml solution is sprayed into each cup, insects and food present. A water source was provided (cotton wick with water). Each treatment was replicated 2-fold. Assay arenas were kept at about 25° C. Percent mortality was recorded after 5 days.

[13] = tested on: Brown Marmorated Stink Bug (Halyomorpha halys); assay: B.13 Brown marmorated stink bug test on peanuts and soybean seeds in plastic cups; settings: 120 h, adult stage, recorded after 5 days, read-out: mortality in comparison with untreated controls
Experimental: B.13 Brown Marmorated Stink Bug (Halyomorpha halys)
as §1
Row peanuts and soybean seeds were placed into microwavable plastic cups and inoculated with five adult stage H. halys. Using a hand atomizer, approximately 1 ml solution is sprayed into each cup, insects and food present. A water source was provided (cotton wick with water). Each treatment is replicated 4-fold. Assay arenas are kept at about 25° C. Percent mortality was recorded after 5 days.

O=C(NC1CS(=O)(=O)C1)c1ccc(C2=NOC(c3cc(Cl)c(F)c(Cl)c3)(C(F)(F)F)C2)c2c1SCC2 (centres unmarked) [Compound I-7, 4-[5-(3,5-dichloro-4-fluoro-phenyl)-5-(trifluoromethyl)-4H-isoxazol-3-yl]-N-(1,1-dioxothietan-3-yl)-2,3-dihydrobenzothiophene-7-carboxamide]
≥ 75%: mortality at 300 ppm [1] | mortality at 2500 ppm [2] | mortality at 2500 ppm [3] | mortality at 2500 ppm [4] | mortality at 2500 ppm [5] | mortality at 2500 ppm [6] | mortality at 300 ppm [7] | mortality at 300 ppm [8] | mortality at 300 ppm [9] | mortality at 10 ppm [10] | mortality at 300 ppm [11] | mortality at 100 ppm [12] | mortality at 100 ppm [13]

CCCC(=O)NCc1ccc(C2=NOC(c3cc(Cl)c(F)c(Cl)c3)(C(F)(F)F)C2)c2c1OCC2 (centres unmarked) [Compound I-16, N-[[4-[5-(3,5-dichloro-4-fluoro-phenyl)-5-(trifluoromethyl)-4H-isoxazol-3-yl]-2,3-dihydrobenzofuran-7-yl]methyl]butanamide]
≥ 75%: mortality at 300 ppm [1] | mortality at 2500 ppm [2] | mortality at 2500 ppm [3] | mortality at 2500 ppm [4] | mortality at 2500 ppm [5] | mortality at 2500 ppm [6] | mortality at 300 ppm [7] | mortality at 300 ppm [8] | mortality at 300 ppm [9] | mortality at 300 ppm [11]
